Values quoted from earlier work as cited in US20240342171A1, “DISCOVERY OF A F-ATP SYNTHASE INHIBITOR FOR THE TREATMENT OF MYCOBACTERIUM ABSCESSUS DISEASES” (priority 2021, published 2024).
≈ marks a conversion by molar mass, not a printed value.

Key:
M. abscessus = settings: for mode of action against M. abscessus: background statement; for MIC of clinically used anti-M. abscessus drugs: Brown-Elliott et al. 2016
[1] = Hotra et al. 2020
[2] = mouse liver microsomes; Hotra et al. 2020

SMILES: CO[C@@]1(NC(=O)Cc2cccs2)C(=O)N2C(C(=O)O)=C(COC(N)=O)CS[C@@H]21 [cefocetin]
- MIC50 of first line drugs (M. abscessus; […]): 43 µM

SMILES: CC(C)/N=c1\cc2n(-c3ccc(Cl)cc3)c3ccccc3nc-2cc1Nc1ccc(Cl)cc1 [CFZ, clofazimine]
- MIC50 (M. abscessus; Ferro et al. 2016): 6.8 µM (≈ 3.22 µg/mL)
- mode of action against M. abscessus (M. abscessus): mostly bacteriostatic

SMILES: CO[C@@]1(NC(=O)Cc2cccs2)C(=O)N2C(C(=O)O)=C(COC(N)=O)CS[C@@H]21 [cefoxitin]
- MIC of clinically used anti-M. abscessus drugs (M. abscessus; Ferro et al. 2016): 38 µM

SMILES: CCNc1cc(C)nc(Nc2ccc(NC(=O)c3cccc(Br)c3)cc2)n1 [GaMF1]
- c log P [1]: 4.37
- metabolic stability [2]: good metabolic stability

SMILES: CO[C@H]1/C=C/O[C@@]2(C)Oc3c(C)c(O)c4c(c3C2=O)C2=NC3(CCN(CC(C)C)CC3)NC2=C(NC(=O)/C(C)=C\C=C\[C@H](C)[C@H](O)[C@@H](C)[C@@H](O)[C@@H](C)[C@H](OC(C)=O)[C@@H]1C)C4=O [rifabutin]
- MIC (M. abscessus): 1 to 4 µM

SMILES: NCC[C@H](O)C(=O)N[C@@H]1C[C@H](N)[C@@H](O[C@H]2O[C@H](CN)[C@@H](O)[C@H](O)[C@H]2O)[C@H](O)[C@H]1O[C@H]1O[C@H](CO)[C@@H](O)[C@H](N)[C@H]1O [amikacin]
- MIC of clinically used anti-M. abscessus drugs (M. abscessus; Ferro et al. 2016): 55 µM

SMILES: COc1nc2ccc(Br)cc2cc1[C@@H](c1ccccc1)[C@@](O)(CCN(C)C)c1cccc2ccccc12 [BDQ, bedaquiline]
- mode of action against M. abscessus (M. abscessus): mostly bacteriostatic

SMILES: COc1cc([C@](O)(CCN(C)C)[C@@H](c2cc3cc(Br)ccc3nc2OC)c2cc(OC)nc(OC)c2OC)cc(OC)n1 [TBAJ876]
- mode of action against M. abscessus (M. abscessus): mostly bacteriostatic
